Assay results as given in PMC3938481, “Molecular Cloning of a Novel Glucuronokinase/Putative Pyrophosphorylase from Zebrafish Acting in an UDP-Glucuronic Acid Salvage Pathway” (PLoS ONE, 2014).

Experiments:
Test in all cases: coupled HPLC assay with pea UDP-sugar pyrophosphorylase
XtGKUP = target: T1, XtGKUP (Xenopus tropicalis, UniProt A0A6I8PZF0); format: biochemical; settings: ATP, UTP, 4 mM MgCl2, 50 mM MOPS-KOH pH 7.5, 35°C
T1 construct: gene XB5896631; bifunctional enzyme cloned from tadpole first-strand cDNA; StrepII-tag, made in Nicotiana benthamiana leaves
T1 sequence (A0A6I8PZF0 1-619): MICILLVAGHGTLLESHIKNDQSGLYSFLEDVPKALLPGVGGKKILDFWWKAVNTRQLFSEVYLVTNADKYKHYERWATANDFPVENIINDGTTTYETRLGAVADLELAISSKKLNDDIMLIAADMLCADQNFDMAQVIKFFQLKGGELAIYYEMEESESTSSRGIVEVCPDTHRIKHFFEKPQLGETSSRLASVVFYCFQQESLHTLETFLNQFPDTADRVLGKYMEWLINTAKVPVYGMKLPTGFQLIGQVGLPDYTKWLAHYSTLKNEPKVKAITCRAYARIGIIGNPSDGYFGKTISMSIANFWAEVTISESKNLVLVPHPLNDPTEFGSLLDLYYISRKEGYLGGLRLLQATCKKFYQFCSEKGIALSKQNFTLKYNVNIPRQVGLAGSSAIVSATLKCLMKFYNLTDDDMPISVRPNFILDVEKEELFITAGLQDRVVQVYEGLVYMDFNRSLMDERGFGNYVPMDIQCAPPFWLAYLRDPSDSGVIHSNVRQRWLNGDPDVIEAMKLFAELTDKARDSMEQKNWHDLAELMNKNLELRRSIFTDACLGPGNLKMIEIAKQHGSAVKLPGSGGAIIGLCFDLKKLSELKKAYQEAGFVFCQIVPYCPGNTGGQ

DrGKUP = target: T2, DrGKUP (Danio rerio, UniProt F6NZ60); format: biochemical; settings: UTP, 4 mM MgCl2, 50 mM MOPS-KOH pH 7.5, 35°C
T2 construct: gene gkup; full length, 619 residues, about 70 kDa; StrepII-tag, made in Nicotiana benthamiana leaves
T2 sequence (F6NZ60 1-619): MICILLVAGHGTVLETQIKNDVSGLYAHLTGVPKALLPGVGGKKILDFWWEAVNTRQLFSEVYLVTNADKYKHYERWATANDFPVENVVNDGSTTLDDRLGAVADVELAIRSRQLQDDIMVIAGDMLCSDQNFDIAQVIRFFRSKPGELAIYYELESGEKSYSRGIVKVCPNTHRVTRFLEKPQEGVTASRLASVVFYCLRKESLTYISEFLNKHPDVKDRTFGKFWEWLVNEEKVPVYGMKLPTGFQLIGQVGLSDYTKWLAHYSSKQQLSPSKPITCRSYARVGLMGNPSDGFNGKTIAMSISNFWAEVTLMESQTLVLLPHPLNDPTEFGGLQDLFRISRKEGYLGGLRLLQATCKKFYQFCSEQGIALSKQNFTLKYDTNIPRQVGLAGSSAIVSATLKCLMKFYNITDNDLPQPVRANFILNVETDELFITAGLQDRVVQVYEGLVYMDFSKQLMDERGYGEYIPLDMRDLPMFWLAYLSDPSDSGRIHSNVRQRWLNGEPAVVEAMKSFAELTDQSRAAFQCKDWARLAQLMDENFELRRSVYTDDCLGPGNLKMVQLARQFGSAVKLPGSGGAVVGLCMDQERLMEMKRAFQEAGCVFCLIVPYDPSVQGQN

[1] = substrate: Nc1ncnc2c1ncn2[C@@H]1O[C@H](COP(=O)(O)OP(=O)(O)OP(=O)(O)O)[C@@H](O)[C@H]1O; format: biochemical, Danio rerio; settings: GlcA and UTP, 4 mM MgCl2, 50 mM MOPS-KOH pH 7.5, 35°C, ATP 0.01-1.4 mM
Text: coupled HPLC assay with pea UDP-sugar pyrophosphorylase on DrGK

Molecule: O=C(O)[C@H]1OC(O)[C@H](O)[C@@H](O)[C@@H]1O (stereo partly drawn) [D-glucuronic acid]
- coupled HPLC assay with pea UDP-sugar pyrophosphorylase (XtGKUP): we can confirm the glucuronokinase activity for the Xenopus enzyme
- coupled HPLC assay with pea UDP-sugar pyrophosphorylase (DrGKUP; ATP): The recombinant full length DrGKUP as well as the DrGK alone catalyzes the phosphorylation of GlcA

Molecule: Nc1ncnc2c1ncn2[C@@H]1O[C@H](COP(=O)(O)OP(=O)(O)OP(=O)(O)O)[C@@H](O)[C@H]1O [ATP]
- coupled HPLC assay with pea UDP-sugar pyrophosphorylase (DrGKUP; GlcA): The product is dependent on the presence of ATP, UTP and GlcA

B1: DrGK (Danio rerio) (protein)
chain: AHYSSKQQLSPSKPITCRSYARVGLMGNPSDGFNGKTIAMSISNFWAEVTLMESQTLVLLPHPLNDPTEFGGLQDLFRISRKEGYLGGLRLLQATCKKFYQFCSEQGIALSKQNFTLKYDTNIPRQVGLAGSSAIVSATLKCLMKFYNITDNDLPQPVRANFILNVETDELFITAGLQDRVVQVYEGLVYMDFSKQLMDERGYGEYIPLDMRDLPMFWLAYLSDPSDSGRIHSNVRQRWLNGEPAVVEAMKSFAELTDQSRAAFQCKDWARLAQLMDENFELRRSVYTDDCLGPGNLKMVQLARQFGSAVKLPGSGGAVVGLCMDQERLMEMKRAFQEAGCVFCLIVPYDPSVQGQN
notes: C-terminal glucuronokinase (GHMP kinase) domain only, 357 residues, 40 kDa, of the 619-residue DrGKUP (N-terminal ~260-residue pyrophosphorylase domain removed); StrepII-tag; made in Nicotiana benthamiana leaves
- Km [1]: 59.3 ± 9.1 µM
- kcat [1]: 1.3 s⁻¹
